Experimental data from patent US6008190A, “Cobalt Schiff base compounds” (California Institute of Technology, priority 1995, dated 1999).
Read-outs that look alike come from different tables or passages of the source. Where a SMILES comes first, the peptide text is derived from it. [ ]: non-standard residue; d: D form.

Tests used:
Human a-thrombin = molecular target: T1, Human a-thrombin (Homo sapiens, UniProt P00734); test: Thrombin inhibition assay, Spectrozyme TH hydrolysis at 406 nm; type: biochemical; conditions: for activity relative to control / thrombin activity after incubation: 0.1 μM thrombin; for activity relative to control: 2.5 mM or similar concentration, 24 hours room temperature, Co(II) compound incubated under inert atmosphere then exposed to air; for thrombin activity after incubation: 2.5 mM, 24 hours at room temperature, assayed at 25° C.
T1 construct: Human a-thrombin and the assay agent Spectrozyme; purchased American Diagnostica (Greenwich, Conn.); host or cells: purified blood product
Experimental: FIG. 1 depicts the inhibition of thrombin. 3.07×10^-9 M thrombin at 25C was assayed using Spectrozyme TH (American Diagnostics), and the reaction followed at 406 nm using a Hewlett Packard HP8452A diode array spectrophotometer with temperature control. All assays were performed in 10 mM Tris, 10 mM HEPES, 0.1% polyethylene glycol, 0.5 M NaCl, pH 7.8. The Co(III) carboxypropyl(NH3)2 (labeled as Co(carboxypropyl)) was coupled to the active site directed peptide NH2 -GGGdFPR-CO-NIH SEQ ID NO: 1 (labeled as peptide dFPR). The observed inhibition greatly exceeded Co(carboxypropyl)(NH3) )2, the peptide, and Co(III)acacen(NH3)2 Cl (labeled as Co(acacen)).
N-(2-hydroxyethyl)piperazine-N'-2-ethanesulfonic acid (HEPES) was from J. T. Baker Phillipsburg, N.J.). Cobaltous acetate tetrahydrate was obtained from FM Science (Gibbstown, N.J.). Human a-thrombin and the assay agent Spectrozyme (H-D-hexahydrotyrosyl-L-alanyl-L-arginine-p-nitroaniline diacetate) were purchased from American Diagnostica (Greenwich, Conn.). Antithrombotic peptides were manufactured as amides by the Beckman Institute Biopolymer Synthesis group at Caltech using solid phase methods. […] was from Pharmacia (Uppsala, Sweden). Enzyme reactions were followed spectrophotometrically using a photodiode array spectrophotometer. Ultrafiltration materials were from Amicon (Beverly Mass.). HPLC used Vydac reverse phase columns. ^1 H NMR were obtained on a 300 MHz FT-NMR spectrometer. Solvents used include EM Omnisolve MeOH, Omnisolve […] passed over basic alumina to remove residual acid, Fluka (Bubcs. Switzerland) puriss. MeOH and dioxane, and Quantum Chemical (Tuscola, Ill.) absolute EtOH. Distilled water was prepared by a Barnistead Nanopure system. All other solvents were reagent trade.
Thrombin inhibition assay: As with any purified blood product, proper care was taken to avoid the transmission of blood-borne pathogens. Thrombin was taken as received (about 1 ml, at 30 μM in 0.75 M sodium chloride storage solution) and divided into 100 μL aliquots. Each aliquot was diluted to 10 ml. using clean. filtered (2 μm) aqueous 0.75 M NaCl and divided into 1 mL samples. Each sample was stored frozen at -80° C. until ready for use. The protein should not be stored at -20 ° C. as this is too close to the cutectic point for the thrombin-salt mixture and freeze-thaw cycling may damage the protein.
An assay buffer containing 10 mM Tris, 10 mM HEPES, 0.1% polyethylene glycol (PEG 8000) and 500 mM sodium chloride was prepared to pH 8. Following manufacturer's instructions, 5 ,μmole Spectrozyme TH was dissolved in 1.000 mL filtered nanopure water. A series of [Co^III (acacen)(NH3)2 ]Cl solutions was prepared by dissolving 16.6 mg of the compound in 0.75M NaCl and then diluting aliquots to a range of cobalt concentrations from 4.7 mM to 4.7 nM. Both of the purified materials were assayed.
Thrombin was preincubated with inhibitor in the kinetics buffer (total volume of thrombin, buffer, and inhibitor of […]) for the times specified in FIG. 1. After incubation, the substrate, spectrozyme TH was added (8 mL of 5 mM spectrozyme), and the thrombin-catalyzed hydrolysis rates were monitored at 406 nm. The final concentration of thrombin in the experiments was 3 nM, and the concentration of substrate was […]. The inhibitor concentrations are outlined in FIG. 1. The rates of hydrolysis were determined from the linear portion of the saturation-kinetics plots. The percent activity is determined by dividing the rate of spectrozyme hydrolysis with inhibitor by the rate of hydrolysis without inhibitor and multiplying by 100.
A vial of thrombin prepared as above was thawed in warm water. 100 μL aliquots were added to 100 μL, samples of the cobalt acacen solutions. One 100 μL aliquot of thrombin solution was diluted with 100 μL 0.75M NaCl to be used as a control. Samples were incubated as needed before assay. […]

Thermolysin [1] = molecular target: T2, Thermolysin (Bacillus thermoproteolyticus, UniProt P00800); conditions: incubated with 5 mM inhibitor, HEPES pH 7.0, thermolysin 5×10^-8 M, cobalt inhibitor 1.25×10^-5 M
Experimental: Thermolysin (2,500,000 units, Calbiochem) was dissolved in 20 mL of Tris buffer (pH 7.2, 0.1 M, 2.5 M NaBr. 0.01 M CaCI2) and stored at 4° C.; enzyme concentration was determined by using E1%^280 =7.65 and a molecular weight of 34,600. This solution was further purified using gel filtration chromatography on an FPLC Using a Superdex 75 column (Pharmacia) equilibrated with 0.1 M Tris, 0.1 M NaBr, 0.01 CaCI, pH 7.2. This stock solution was stored at 4C. N-[3-(2-furyl)acryloyl]glycyl L-leuciniamide (FAGLA) was obtained from Sigma as the thermolysin substrate. A stock solution of FAGLA (4.0 mM) was prepared by dissolving the substrate in dimethylforthamide (DMF) and diluting it with buffer to a final concentration of 0.1 M Tris, 0.1 NaBr and 10 mM CaCl2, pH 7.0 (final concentration of DMF was 2.5%; sec Feder et al., Biochem. 9:2784-2791 (1970)). For all assays, the concentration of enzyme and substrate was 50 nM and 2.0 mM respectively. The peptidase activity of thermolysin was determined by following the decrease in absorption at 346 due to the enzymatic hydrolysis of FAGLA. Initial velocities were determined for ≤10% of the reaction.
Thermolysin (2×10^-5 mol) was incubated with [Co(III)acacen(NH3)2 ]Cl (5 mM) in HEPES buffer (pH 7.0, 0.01 M, 0.005 M CaCl2).
Stock solution of thermolysin was mixed with the cobalt compound dissolved in 0.1 M Tris, 0.1 M NaBr, 0.01 CaCl2, pH 7.2 (run buffer) to yield a final enzyme concentration of […] and a cobalt concentration of 2.5 mM. These solutions were incubated at 25C or 37C for several hours along with a control lacking cobalt compound. Periodically […] aliquots of these solutions were assayed for residual enzyme activity by their addition to a cuvette contain […] of FAGLA stock Solution, and following the absorption decrease at 346 nm as described above. All enzyme assays were performed at 25C.

thrombin = thrombin (Homo sapiens, UniProt P00734); conditions: initial estimate for two separate samples
Experimental: The [Co(III)acacen(NH3)2 ]CI experiments were repeated for a range of cobalt concentrations from 2.4 mM to 2.4 nM after at 12 hour incubation at 25C.

Thermolysin [2] = molecular target: T2, Thermolysin
Text: The resulting solution was transferred into the Tris running buffer using a PD-10 column (Pharmacia), and was characterized.

[3] = Axial ligand exchange of ammonia for imidazole; type: physicochemical; conditions: in water with excess imidazole, 25° C.
Text: In a preferred embodiment, the cobalt compounds find use in the inhibition of proteins and enzymes of tumor cells. As outlined above, Co(III) "acacen" compounds can exchange an axial ligand for a different one by a dissociative mechanism with the slow loss of one axial ligand to form a five coordinate intermediate, followed by binding to another suitable ligand. For most cobalt complexes, ligand exchange is a slow process because there is a large loss of ligand field stabilization energy when a ligand is removed from an octahedral d^6 complex (see Huheey et al., Inorganic Chemistry: Principles of Structure and Reactivity, 4th Ed. HarperCollins. N.Y., chapter 13). Generally, the exchange is slow; for example, [Co(III)(acacen)(NH3)2 ]Cl in water with excess imidazole exchanges ammonia for imidazole with a half-life under an hour at 25° C., with the rate of exchange increasing with temperature. However, reduction to cobalt(II) puts an electron into the antibonding dz2 orbital, labilizing the axial ligands. Typical one-electronic reduction potentials with irreversible loss of an axial ligand are around -360 mV vs NHE, (Darbieu et al., Transition Met. Chem., 7:149 (1982)). This property may be exploited as a "redox switch" to control the activity of the cobalt compound. […]

[4] = molecular target: T3, Bovine carbonic anhydrase (Bos taurus, UniProt P00921); test: Inhibition of carbonic anhydrase, p-nitrophenylacetate substrate; type: biochemical; conditions: for % inhibition of CA: inert atmosphere, Tris pH 8
T3 construct: purchased Calbiochem
Experimental: Bovine carbonic anhydrase (20 mg 6.7×10^-7 mol, Calbiochem) was dissolved in 0.5 mL Tris buffer (pH=8, 0.05 M). To this solution was added 30 mg of Co(II)hydroxypropyl acacen (30 mg, 7.6×10^-5 mol) dissolved in 0.5 mL of H2 O. This solution was incubated for 48 hours. The excess cobalt complex was separated from the protein using a PD-10 gel filtration column equilibrated with Tris buffer (pH 8, 0.05 M). This enzyme, which was incubated with the Co(III) complex, retained 100% of its activity.
Two samples of bovine carbonic anhydrase (30 mg, 1×10^-6 mol) were dissolved in 3 mL of degassed Tris buffer (pH 8, 0.05 M). To one of the samples was added Co(II)hydroxypropyl acacen (30 mg, 9×10^-5mol). The other sample of bovine carbonic anhydrase served as the control. The solutions were incubated under inert atmosphere (glove box) and a 1 mL aliquot was removed from each sample after 48 and 96 hours of incubation. The protein was then exposed to air and the excess Co(II)hydroxypropyl acacen separated from the protein using a PD-10 gel filtration column (Pharmacia) equilibrated with Tris buffer (pH 8, 0.05 M). The enzymatic activity of the protein was assayed using p-nitroplhenylacetate as the substrate (Pocker et al., Biochem. 6:668-678 (1967)).

T2 sequence (P00800 233-548): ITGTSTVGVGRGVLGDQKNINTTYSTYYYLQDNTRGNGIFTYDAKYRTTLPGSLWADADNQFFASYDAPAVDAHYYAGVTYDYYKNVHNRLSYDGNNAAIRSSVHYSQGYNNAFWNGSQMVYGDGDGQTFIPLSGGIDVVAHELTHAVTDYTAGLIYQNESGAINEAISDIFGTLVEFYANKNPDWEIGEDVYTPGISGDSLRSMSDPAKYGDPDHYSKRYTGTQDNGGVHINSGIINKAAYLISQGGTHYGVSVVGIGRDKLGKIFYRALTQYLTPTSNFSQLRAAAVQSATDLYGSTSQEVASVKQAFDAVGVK
T3 sequence (P00921 whole entry): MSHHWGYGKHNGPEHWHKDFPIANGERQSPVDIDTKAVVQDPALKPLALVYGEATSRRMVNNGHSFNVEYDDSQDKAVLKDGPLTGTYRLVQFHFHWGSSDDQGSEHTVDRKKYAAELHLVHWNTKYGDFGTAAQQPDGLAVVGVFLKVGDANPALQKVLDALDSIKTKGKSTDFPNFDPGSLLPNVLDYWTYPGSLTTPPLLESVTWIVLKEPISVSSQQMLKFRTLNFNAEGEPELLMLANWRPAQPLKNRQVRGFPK

`N=C(N)NCCC[C@H](NC(=O)[C@@H]1CCCN1C(=O)[C@@H](Cc1ccccc1)NC(=O)CNC(=O)CNC(=O)CN)C(N)=O` [(Gly)3 dPhePioArg, reference compound] (H-GGG[dF]PR-NH2) gave a Ki (Human a-thrombin) of roughly 209 µM.
For `CC([O-])=CC(C)=NCCN=C(C)C=C(C)[O-].N.N.[Cl-].[Co+3]` [[Co(III)acacen(NH3)2]Cl], the “% inhibition” value (Thermolysin [1]; 45 minutes incubation) was 46.2%, the “% inhibition” value (Thermolysin [1]; 190 minutes incubation) was 63.9% and the “% inhibition” value (Thermolysin [1]; 322 minutes incubation) was 77.7%. The cobalts per enzyme (thrombin) was 5-8, the “loss of enzyme activity due to irreversible inactivation by the cobalt complex” value (Thermolysin [2]; 5 mM cobalt complex, 10 μM thermolysin, overnight at 25C in presence of 50 μM phosphoramidon, after removal of the inhibitor) was “no detectable loss of enzyme activity” and the “cobalt complexes bound to the enzyme” value (Thermolysin [2]; active enzyme, active site protected by phosphoramidon) was “two”. The “equivalents of the cobalt compound bound for each enzyme molecule” value (Thermolysin [2]; thermolysin completely inactivated by the cobalt complex) was “three”, the “activity relative to control” value (Human a-thrombin) was 0% and the “thrombin activity after incubation” value (Human a-thrombin) was “completely inactive”. For the same molecule, the “lowest cobalt concentration found to inhibit the protein” value (Human a-thrombin; range 2.4 mM to 2.4 nM, 12 hour incubation at 25C) was 24 µM, the “inhibition at lower incubation temperature” value (Human a-thrombin; range of cobalt concentrations, 3 hours at 5C, activity determined at 25C) was “Partial inhibition” and the “half-life of exchange of ammonia for imidazole” value [3] was “under an hour”.
With `CC(=O)C=C(C)NCCNC(C)=CC(C)=O` [cobalt-free ligand, acetylacetone etlhylenediamine] the “thrombin activity after incubation” value (Human a-thrombin) was “no effect”.
With Co(II)hydroxypropyl acacen the “% inhibition of CA” value ([4]; 48 hours incubation) was 33.8%, the “% inhibition of CA” value ([4]; 96 hours incubation) was 43.2% and the “activity relative to control” value (Human a-thrombin) was 42%.
For “[Co(III)hydroxypropylacacen(NH3)2 ]CH3 COO [Co(III) complex]”, the “enzyme activity retained after incubation” value ([4]; incubated 48 hours, Tris buffer pH 8, excess complex removed by gel filtration) was 100%.
